Values after ≈ are worked out from the molar mass of the structure shown. Active and inactive are the calls of the source. The calls are words filed in the database; no cut-off is given here. Numbered stars: 1 amine (or outer) side, 2 acyl side, 3 side chain; on linkers, the order of the positions; unused ones are H or OH. Square brackets hold non-standard residues; d marks the D form. Peptide text beside a SMILES is read from it. * marks the point of attachment. X2 = CC(C)C[C@H](N)CN(CC(=O)[*:2])[*:1]; X1 = O=S(=O)(c1ccc(I)cc1)*
How the values were obtained:
[1] = system: Staphylococcus aureus; experiment: Antimicrobial activity against methicillin resistant Staphylococcus aureus ATCC 33591 infected in skin wound mouse model assessed as reduction in ulcer at 1 to 4 mg/kg measured on day 3 and 7 by H and E staining based assay; type: functional, organism-based; conditions: dose 1-4 mg/kg, time 3-7 day
[2] = system: Staphylococcus epidermidis; experiment: Antibiofilm activity against Staphylococcus epidermidis ATCC 12228 assessed as reduction in biofilm mass; type: functional, organism-based
[3] = system: Pseudomonas aeruginosa; experiment: Bactericidal activity against Pseudomonas aeruginosa ATCC 27853 at 4 times MIC after 30 mins by time kill assay; type: functional, organism-based
[4] = system: Staphylococcus aureus; experiment: Antibiofilm activity against methicillin resistant Staphylococcus aureus ATCC 33591 assessed as reduction in biofilm thickness; type: functional, organism-based
[5] = system: Pseudomonas aeruginosa; experiment: Bactericidal activity against Pseudomonas aeruginosa ATCC 27853 at 4 times MIC after 1 hr; type: functional, organism-based
[6] = system: Staphylococcus aureus; experiment: Induction of resistant development in Staphylococcus aureus ATCC 25923 assessed as fold increase by serial passage assay; type: functional
[7] = system: Cell membrane; experiment: Induction of cytoplasmic membrane depolarization in Pseudomonas aeruginosa ATCC 27853 by DiSC35 dye based fluorescence method
[8] = system: Staphylococcus aureus; experiment: Bactericidal activity against Staphylococcus aureus ATCC 25923 at 4 times MIC after 2 to 4 hrs; type: functional, organism-based; conditions: time 2-4 hrs
[9] = system: Cell membrane; experiment: Induction of membrane disruption in methicillin resistant Staphylococcus aureus ATCC 33591 assessed as membrane blebbing at low concentration incubated for 24 hrs by SEM analysis; type: subcellular
[10] = system: Cell membrane; experiment: Induction of membrane disruption in Pseudomonas aeruginosa ATCC 27853 assessed as separation of outer membrane at 2 to 4 times MIC incubated for 24 hrs by TEM analysis; type: subcellular
[11] = system: DNA; experiment: Binding affinity to methicillin resistant Staphylococcus aureus DNA at 8 times MIC incubated for 30 mins; type: nucleic-acid assay
[12] = system: Staphylococcus aureus; experiment: Antimicrobial activity against methicillin resistant Staphylococcus aureus ATCC 33591 infected in skin wound mouse model assessed as reduction in edema at 1 to 4 mg/kg measured on day 3 and 7 by H and E staining based assay; type: functional, organism-based; conditions: dose 1-4 mg/kg, time 3-7 day
[13] = system: Cell membrane; experiment: Induction of membrane disruption in methicillin resistant Staphylococcus aureus ATCC 33591 assessed as irregular atrophy at low concentration incubated for 24 hrs by SEM analysis; type: subcellular
[14] = system: DNA; experiment: Binding affinity to Pseudomonas aeruginosa DNA at 8 times MIC incubated for 30 mins; type: nucleic-acid assay
[15] = system: Pseudomonas aeruginosa; experiment: Antimicrobial activity against Pseudomonas aeruginosa ATCC 27853 infected in C57BL/6J mouse assessed as reduction in lung bacterial load at 2.5 mg/kg, ip measured after 72 hrs […] (reference value: 6.4 10^3CFU/mg); type: functional
[16] = system: Staphylococcus aureus; experiment: (§1) Antimicrobial activity against methicillin resistant Staphylococcus aureus ATCC 33591 infected in BALB/c mouse assessed as biofilm eradication at 0.25 to 1 mg/kg infected with bacteria for 2 hrs prior to compound addition on 1, 24 and 48 hrs and measured after 72 hrs by H and E staining based assay; type: functional, organism-based; conditions: dose 0.25-1 mg/kg
[17] = system: Pseudomonas aeruginosa; experiment: Antibiofilm activity against Pseudomonas aeruginosa ATCC 27853 at 4 to 8 ug/ml incubated for 24 hrs by crystal violet staining based microplate reader analysis; type: functional, organism-based; conditions: dose 4-8 µg/ml
[18] = system: Cell membrane; experiment: Induction of membrane disruption in Pseudomonas aeruginosa ATCC 27853 assessed as cytoplasmic leakage at 2 to 4 times MIC incubated for 24 hrs by TEM analysis; type: subcellular
[19] = system: Staphylococcus epidermidis; experiment: Antibiofilm activity against Staphylococcus epidermidis ATCC 12228 assessed as reduction in biofilm thickness; type: functional, organism-based
[20] = system: Pseudomonas aeruginosa; experiment: Antibiofilm activity against Pseudomonas aeruginosa ATCC 27853 assessed as reduction in biofilm numbers at 1 times MBIC90 incubated for 24 hrs by confocal laser scanning microscopy analysis; type: functional, organism-based
[21] = system: Pseudomonas aeruginosa; experiment: Induction of resistant development in Pseudomonas aeruginosa ATCC 27853 at sub-MIC after 20 days; type: functional, organism-based; conditions: time 20.0 day
[22] = system: Cell membrane; experiment: Induction of membrane disruption in Pseudomonas aeruginosa ATCC 27853 assessed as cell lysis at high concentration incubated for 24 hrs by SEM analysis; type: subcellular
[23] = system: Staphylococcus aureus; experiment: Antibiofilm activity against methicillin resistant staphylococcus aureus ATCC 33591 at 4 to 8 ug/ml incubated for 24 hrs by crystal violet staining based microplate reader analysis; type: functional, organism-based; conditions: dose 4-8 µg/ml
[24] = system: Cell membrane; experiment: Induction of membrane disruption in methicillin resistant Staphylococcus aureus ATCC 33591 assessed as membrane shrinkage at low concentration incubated for 24 hrs by SEM analysis; type: subcellular
[25] = system: Cell membrane; experiment: Induction of membrane disruption in Pseudomonas aeruginosa ATCC 27853 assessed as irregular atrophy at low concentration incubated for 24 hrs by SEM analysis; type: subcellular
[26] = system: Erythrocyte; experiment: Hemolytic activity against mouse red blood cells incubated for 1 hr; type: toxicity, cell-based
[27] = system: Pseudomonas aeruginosa; experiment: Induction of protein leakage in Pseudomonas aeruginosa ATCC 27853; type: functional, organism-based; conditions: TDE = time-dependent effect
[28] = system: Pseudomonas aeruginosa; experiment: Antibiofilm activity against Pseudomonas aeruginosa ATCC 27853 assessed as reduction in biofilm structures at MBIC90 by scanning electron microscopic analysis; type: functional, organism-based
[29] = system: Cell membrane; experiment: Induction of membrane disruption in Pseudomonas aeruginosa ATCC 27853 assessed as membrane shrinkage at low concentration incubated for 24 hrs by SEM analysis; type: subcellular
[30] = system: Staphylococcus aureus; experiment: Antimicrobial activity against methicillin resistant Staphylococcus aureus ATCC 33591 infected in skin wound mouse model assessed as wound healing at 0.25 mg/kg measured upto 10 days by H and E staining based assay; type: functional, organism-based; conditions: time <= 10.0 day
[31] = system: Pseudomonas aeruginosa; experiment: Antibiofilm activity against Pseudomonas aeruginosa ATCC 27853 assessed as reduction in biofilm thickness at 1 times MBIC90 incubated for 24 hrs by confocal laser scanning microscopy analysis (reference value: 90 micrometer); type: functional
[32] = system: Staphylococcus aureus; experiment: Antimicrobial activity against methicillin resistant Staphylococcus aureus ATCC 33591 infected in skin wound mouse model assessed as reduction in inflammatory infiltration at […] by H and E staining based assay; type: functional, organism-based; conditions: dose lower 10.0 mg/kg
[33] = system: Pseudomonas aeruginosa; experiment: Induction of protein leakage in Pseudomonas aeruginosa ATCC 27853 after 1 to 6 hrs; type: functional, organism-based; conditions: time 1-6 hrs
[34] = system: Cell membrane; experiment: Induction of outer membrane disruption in Pseudomonas aeruginosa in presence of CaCl2 by NPN uptake assay; type: subcellular
[35] = system: Escherichia coli; experiment: Bactericidal activity against Escherichia coli ATCC 25922 at 1 to 2 times MIC after 2 to 3 hrs by time kill assay; type: functional, organism-based; conditions: time 2-3 hrs
[36] = system: Staphylococcus epidermidis; experiment: Antibiofilm activity against Staphylococcus epidermidis ATCC 12228 at 2 to 4 ug/ml incubated for 24 hrs by crystal violet staining based microplate reader analysis; type: functional; conditions: dose 2-4 µg/ml, at 2 to 4 µg/mL
[37] = system: DNA; experiment: Binding affinity to Staphylococcus aureus DNA at 8 times MIC incubated for 30 mins; type: nucleic-acid assay
[38] = system: Staphylococcus aureus; experiment: Antimicrobial activity against methicillin resistant Staphylococcus aureus ATCC 33591 incubated for 18 hrs by microdilution method; type: functional
[39] = system: Staphylococcus aureus; experiment: as §1, with “reduction in inflammatory cell infiltration” for “biofilm eradication”; type: functional, organism-based; conditions: dose 0.25-1 mg/kg
[40] = system: Pseudomonas aeruginosa; experiment: Antimicrobial activity against Pseudomonas aeruginosa ATCC 27853 infected in C57BL/6J mouse assessed as reduction in IL-6 at 2.5 mg/kg, ip measured after 72 hrs […]; type: functional, organism-based

Q: For `CC(C)C[C@H](N)CN(CC(=O)N[C@@H](CCCCN)C(=O)N[C@@H](CC(C)C)C(=O)N[C@@H](CC(C)C)C(=O)N[C@@H](CCCCN)C(=O)N[C@@H](CCCCN)C(=O)N[C@@H](CC(C)C)C(=O)N[C@@H](CC(C)C)C(N)=O)S(=O)(=O)c1ccc(I)cc1` (X1-[X2]KLLKKLL-NH2), which Activity [1] is on record?
A: Its Activity is “Active”.

Q: And the Activity [2]?
A: Its Activity is “Active”.

Q: And the Activity [3]?
A: Its Activity is “Active”.

Q: And the Activity [4]?
A: Its Activity is “Active”.

Q: And the Activity [5]?
A: The Activity was “Active”.

Q: What about the “fold change (FC)” value [6] of the same compound?
A: The value was 2.

Q: And the Activity [7]?
A: Its Activity is “Active”.

Q: What about the Activity [8] of the same compound?
A: Its Activity is “Active”.

Q: What about the Activity [9] of the same compound?
A: Its Activity is “Active”.

Q: What about the Activity [10] of the same compound?
A: The Activity was “Active”.

Q: What about the Activity [11] of the same compound?
A: Its Activity is “Active”.

Q: And the Activity [12]?
A: The Activity was “Active”.

Q: What about the Activity [13] of the same compound?
A: The Activity was “Active”.

Q: And the Activity [14]?
A: The Activity was “Active”.

Q: And the Activity [15]?
A: Its Activity is 3 10^3CFU/mg.

Q: And the Activity [16]?
A: The Activity was “Active”.

Q: And the Activity [17]?
A: Its Activity is “Active”.

Q: And the Activity [18]?
A: The Activity was “Active”.

Q: What about the Activity [19] of the same compound?
A: The Activity was “Active”.

Q: What about the Activity [20] of the same compound?
A: Its Activity is “Active”.

Q: What about the Activity [21] of the same compound?
A: The Activity was “Active”.

Q: What about the Activity [22] of the same compound?
A: The Activity was “Active”.

Q: What about the Activity [23] of the same compound?
A: Its Activity is “Active”.

Q: What about the Activity [24] of the same compound?
A: Its Activity is “Active”.

Q: And the Activity [25]?
A: The Activity was “Active”.

Q: And the MHC [26]?
A: Its MHC is 256 µg/mL.

Q: And the Activity [27]?
A: The Activity was “Tde”.

Q: And the Activity [28]?
A: The Activity was “Active”.

Q: And the Activity [29]?
A: Its Activity is “Active”.

Q: And the Activity [30]?
A: Its Activity is “Active”.

Q: And the Activity [31]?
A: The Activity was 20 um.

Q: And the Activity [32]?
A: Its Activity is “Active”.

Q: What about the Activity [33] of the same compound?
A: The Activity was “Dose-Dependent Effect”.

Q: What about the Activity [34] of the same compound?
A: Its Activity is “Active”.

Q: And the Activity [35]?
A: The Activity was “Active”.

Q: And the Activity [36]?
A: The Activity was 50%.

Q: What about the Activity [37] of the same compound?
A: Its Activity is “Active”.

Q: And the MIC [38]?
A: The MIC was 2.8 µg/mL (≈ 2.19 µM).

Q: What about the Activity [39] of the same compound?
A: The Activity was “Active”.

Q: What about the Activity [40] of the same compound?
A: The Activity was “Active”.
